Experiments:
Solubility = format: physicochemical; details: dry ethanol, methanol, chloroform, dimethylformamide, dimethylsulfoxide
B16 melanoma cells = test: Artificial metastasis model of B16 mice melanoma (Example 6); format: in vivo, C57BL/6 mouse
Method: 3) An metastasis model of B16 mouse melanoma is constructed by direct injection of B16 cells into tail vein in C57BL/6 mouse, and the ability of a drug for inhibiting tumor metastasis is determined by counting the number of the metastatic tumors on lung. Such a model mimics the metastatic process of cancer cells from the circulatory system to the target organ, which is more similar with the metastatic way of tumor cells in the bodies of patients with advanced cancer.
The ability of (S)2-(4′-methyl-3′-nitrobenzoylamino)-3-phenylpropionic acid for inhibiting tumor metastasis in vivo was tested by artificial metastasis model of B16 mice melanoma.
1) Mice grouping: C57BL/6 of SPF grade, 5 weeks old, 18˜22 g, 8 mice for each group, half male and half female;
2) The mother liquid of (S)2-(4′-methyl-3′-nitrobenzoylamino)-3-phenylpropionic acid for the dosage form administrated by intravenous injection was diluted to 0.8 mg/mL, 0.2 mg/mL, 0.05 mg/mL by adding sterilized water. […]
3) B16 cells in logarithmic growth phase were digested with 0.05% typsine for 1 min, and after centrifugation at 1000 rpm for 5 min, the supernatant was discarded and the cells were resuspended and counted. […]
5) After the completion of the experiment, the mice were sacrificed and the lungs were taken, the number and size of melanomas on the lungs was counted, and the weight of the lungs were weighed;

## Cc1ccc(C(=O)N[C@@H](Cc2ccccc2)C(=O)O)cc1[N+](=O)[O-] [(S)2-(4′-methyl-3′-nitrobenzoylamino)-3-phenylpropionic acid]
Solubility
  solubility in organic solvents: highly soluble
B16 melanoma cells; 8, 2, 0.5 mg/kg tail vein, twice a day, 21 days, P<0.01
  tumor numbers on the lungs and lung weights compared with the negative control: very significant difference
B16 melanoma cells; tail vein administration of 0.5 mg/kg
  inhibition of metastasis of B16 mouse melanoma cell in C57BL/6 mouse: significantly inhibit
